Source: article PMC9595134, “Novel pituitary actions of GnRH in teleost: The link between reproduction and feeding regulation” (Frontiers in Endocrinology, 2022)
Where a SMILES comes first, the peptide text is derived from it. [ ]: non-standard residue; d: D form. pGlu = O=C1CC[C@@H](C(=O)O)N1

Tested on: grass carp pituitary cells
Experiment: qRT-PCR of reproductive hormone genes in pituitary cells
Assay type: cell-based, grass carp (Ctenopharyngodon idellus)
Experimental: The preparation of grass carp pituitary cells was performed as mentioned above. After drug treatment, the total RNA of these cells was isolated by TRIzol reagent and reverse transcribed into cDNA with Hifair™ III 1st Strand cDNA Synthesis Kit. The transcript levels of several anorectic peptides (POMCb, CART2, UTS1, NMBa, NMBb, and Lepr) and reproductive genes (GtHα, LHβ, FSHβ, INHBa, SgII, DRD2) were detected by using an ABI 7500 quantitative real-time PCR (qRT-PCR) system (Biosystems, USA) (information of primers for target genes is listed in Supplementary Table S3 ). In this process, a serial gradient dilution of plasmid DNA of these genes was used as a standard for data calibration. The conditions of qRT-PCR were set to 10 min, 95°C, for pre-degeneration; 15 s, 95°C, for degeneration; 30 s, 55°C–60°C, for annealing; 30 s, 72°C, for extending; and 20 s, 82°C, for signal detection with 40 cycles. Finally, the melt curve obtained through each test was used to verify and check the reliability and specificity of the corresponding qRT-PCR.
The transcript level was detected using qRT-PCR by ABI 7500 software, while the data calibration of each reaction was performed through standard curves with the dynamic range of 10^5 and correlation coefficient >0.95. The transcript level of β-actin was used as an internal control, and target gene mRNA expression was normalized and calculated as a percentage of the mean value (as “% Ctrl”). Based on merging four to eight replicates (as mean ± SEM), the data were analyzed with a one-way ANOVA to differentiate the significant differences from other treatment experiments. The SPSS Statistics 26.0 software was used to do a Dunnett’s post-hoc test. […] The different letters represent a significant difference at p < 0.05 between groups.
To further verify the reproductive function of GnRHs, time- and dose-dependent tests were performed to detect GnRH2- or GnRH3-regulated GtHα, LHβ, FSHβ, INHBa, SgII, and DRD2 mRNA expression in grass carp pituitary cells. […] In the dose-dependent test, a continuous gradient dilution of GnRH2 (0.1–1,000 nM) or GnRH3 (0.1–1,000 nM) was incubated with grass carp pituitary cells for 24 h.
Figure 5 Regulation of reproductive hormone gene mRNA expression by GnRH2 and GnRH3 in grass carp pituitary cells. (A) Time-course experiment of grass carp GnRH2 (1 μM) and GnRH3 (1 μM) on GtHα, LHβ, FSHβ, INHBa, SgII, and DRD2 mRNA expression in grass carp pituitary cells. (B) Dose dependence of a 24-h treatment with increasing levels of GnRH2 and GnRH3 (0.1–1,000 nM) on GtHα, LHβ, FSHβ, INHBa, SgII, and DRD2 mRNA expression in grass carp pituitary cells. After drug treatment, the pituitary cells were extracted to total RNA, reversed transcribed, and used for RT-PCR to detect the target genes’ mRNA expression. […] The different letters represent a significant difference at p < 0.05 between groups (ANOVA followed by a Dunnett test).

[1] = 1 μM, time-dependent, Figure 5A

CC(C)C[C@H](NC(=O)[C@H](Cc1c[nH]c2ccccc12)NC(=O)CNC(=O)[C@H](Cc1ccc(O)cc1)NC(=O)[C@H](CO)NC(=O)[C@H](Cc1c[nH]c2ccccc12)NC(=O)[C@H](Cc1c[nH]cn1)NC(=O)[C@@H]1CCC(=O)N1)C(=O)N1CCC[C@H]1C(=O)NCC(N)=O [GnRH3] ([pGlu]HWSYGWLPG-NH2)
effect on DRD2 mRNA expression, time course [1]: inhibit
effect on GtHα, LHβ, FSHβ, INHBa, and SgII mRNA expression, time course [1]: significantly induce
effect on DRD2 mRNA expression, dose test (0.1–1,000 nM (all treated doses), 24 h, Figure 5B): significantly inhibit
effect on GtHα, LHβ, FSHβ, INHBa, and SgII mRNA expression, dose dependence (0.1–1,000 nM, 24 h, dose-dependent, Figure 5B): significantly induce
